One data set has as its system biotinylated hTNF-α. The data set is described as follows: Phage ELISA of selected clones. The conditions noted are these: streptavidin-coated 96-well plates coated with 20 nM biotinylated hTNF-α; phage-displayed peptide. Format: binding, human. On the procedure: Random 12-mer peptide phage library Ph.D.™-12 (New England Biolabs, Ipswich, MA, USA) was incubated with biotinylated hTNF-α. 10^11 phage, diluted in PBS (137 mM NaCl, 2 mM KCl, 10 mM Na2HPO4, 2 mM KH2PO4, pH 7.4) containing 0.1% (v/v) Tween 20 (PBST) and 3% bovine albumin (BSA) and incubated with 50 nM biotinylated hTNF-α o/n at 4 °C, was added to 100 μL Dynabeads-M280 coupled with streptavidin (Invitrogen¸ Waltham, MA, USA), saturated with 5% BSA in PBST, for 15 min at room temperature. After washing 10 times with PBST, bound phages were eluted with 5 μM adalimumab for 60 min at room temperature. The amplified phages were titered and underwent two further rounds of biopanning as described above, except that the concentration of biotinylated hTNF-α was diminished (20 nM and 10 nM for the second and third rounds of panning, respectively) and washing was performed using 0.5% (v/v) Tween 20.
In alternative to the selection described above we performed the following panning using SPR technology. Biotinylated hTNF-α was immobilized to the streptavidin (SA) sensor chip surface, obtaining final 2000 Resonance Units. […] For both pannings, the binding of selected clones to hTNF-α after the last round of panning was evaluated by phage ELISA in streptavidin-coated 96-well plates coated with 20 nM biotinylated hTNF-α.

Data set [1] relates to homotrimeric form of hTNF-α. The data set is described as follows: MALDI-TOF MS analysis of hTNF-α oligomer dissociation. Format: biochemical, human. Particulars: 5 min at room temperature, linear mode. The protocol:
To determine whether the anti-TNF-α peptide destabilized the oligomeric form of hTNF-α, we evaluated the distribution of monomeric, dimeric and trimeric hTNF-α by MS in the presence of increasing concentrations of anti-TNF-α peptide.
The anti-TNF-α peptide was incubated in a 3-fold or 10-fold molar excess with respect with hTNF-α at room temperature for 5 min. The dissociation of hTNF-α was analysed by mass spectrometry using a sinapinic acid matrix (Sigma-Aldrich) and a protein standard II (mass range ~10,000–70,000 Da, Brucker Daltonics) in an ultrafleXtreme MALDI-TOF/TOF mass spectrometer (Bruker Daltonics) in linear mode.

Data set [2] addresses T1, hTNF-α binding to adalimumab (Homo sapiens, UniProt P01375).
T1 construct: peaks around 17,300, 34,700 and 52,100 Da, corresponding to monomeric, homodimeric and homotrimeric forms of hTNF-α; purchased Prospec
Kind of data set: SPR inhibition of hTNF-α binding to captured adalimumab. Particulars: 25 µM peptide, 10 nM hTNF-α, adalimumab captured via Protein A on CM5 chip, read-out: inhibition of TNF-α binding to adalimumab. The protocol:
The anti-hTNF-α monoclonal antibody adalimumab was captured on a protein-A-coated sensor chip. 10 nM hTNF-α was injected over the immobilized antibody in the presence of different concentrations (25, 10 and 1 µM) of the tetra-branched anti-TNF-α peptide (Figure 3A).
(§1) All the experiments were performed on a Biacore T100 instrument (GE Healthcare, Milan, Italy); materials were purchased from GE Healthcare unless otherwise specified. Adalimumab was a kind gift from Galeazzi, University of Siena. Biotinylated linear and tetra-branched TNF-peptides were immobilized on a SA sensor chip. Briefly, peptides diluted in HBS-EP+ were injected for 60 s at a flow rate of 10 µL/min, obtaining 300 and 700 RUs respectively. Different concentrations of hTNF-α, from 250 nM to 2 µM in HBS-EP+, were injected for 180 s at a flow rate of 75 µL/min onto immobilized peptides. Association and dissociation kinetic rate constants (kon and koff) and the equilibrium dissociation constant Kd were calculated using BIAevaluation 3.0 software. […] Adalimumab monoclonal antibody (1 µg/mL in HBS-EP+ for 45 s at a flow rate of 10 µL/min) was immobilized on a CM5 sensor chip previously coated with Protein A (6500 RUs). Competition experiments were carried out injecting 10 nM hTNF-α for 180 s at flow rate of 30 µL/min with various concentrations (1, 10 and 25 µM) of tetra-branched TNF-peptide. […]

Another data set addresses T2, human TNF-α (hTNF-α) (Homo sapiens, UniProt P01375).
T2 construct: peaks around 17,300, 34,700 and 52,100 Da, corresponding to monomeric, homodimeric and homotrimeric forms of hTNF-α; purchased Prospec
The data set is described as follows: SPR binding of hTNF-α to immobilized biotinylated peptides (Biacore T100). Particulars: hTNF-α 250 nM to 2 µM over immobilized peptide. The protocol:
hTNF-α was injected over linear and tetra-branched peptides previously immobilized on a Biacore T100 SA sensor chip. hTNF-α was flowed at concentrations ranging from 250 nM to 2 µM. To assess any non-specific binding, hTNF-α was also injected over an empty flow cell.
as §1
In general terms: SPR reads the build-up and loss of mass on a sensor chip optically.

The next data set concerns murine TNF-α. Kind of data set: SPR specificity: binding of murine TNF-α to immobilized peptides. The conditions noted are these: data not shown.

Bridges are numbered along the chain shown (N, C = ends). Roman numbers before positions name the chains, in order. Where no end group is shown, it is not given here.

T1 sequence (P01375 77-233 limits assumed): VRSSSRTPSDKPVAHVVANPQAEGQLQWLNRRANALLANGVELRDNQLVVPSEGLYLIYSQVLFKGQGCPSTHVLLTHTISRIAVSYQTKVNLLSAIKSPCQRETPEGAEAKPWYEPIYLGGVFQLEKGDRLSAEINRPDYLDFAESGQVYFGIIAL
T2 sequence (P01375 77-233 limits assumed): as above

Take HIHDDLLRYYGW: in the data set with biotinylated hTNF-α, the “phage ELISA result for clones expressing the sequence (in words)” value is given as “positive”.

What is called inhibition is the drop in the measured response relative to a control, in per cent. “I: HIHDDLLRYYGWKK-NH2 / II: HIHDDLLRYYGWK / III: HIHDDLLRYYGW / IV: HIHDDLLRYYGW (amide I:13-IV:C, I:14-II:C, II:13-III:C) [tetra-branched anti-TNF-α peptide]”: in data set [1] (tenfold molar excess of peptide), the “homo-dimeric hTNF-α peak in MS (in words)” value was “the homo-dimeric form also disappeared”. Also, in data set [1] (threefold molar excess of peptide), the “homo-trimeric hTNF-α peak in MS (in words)” value was “The peak corresponding to the homo-trimeric form disappeared”. The inhibition at 25 µM in data set [2] was about 80%.

Regarding “I: HIHDDLLRYYGWKK-NH2 / II: HIHDDLLRYYGWK / III: HIHDDLLRYYGW / IV: HIHDDLLRYYGW (amide I:13-IV:C, I:14-II:C, II:13-III:C; C-terminus assumed) [tetra-branched peptide]”, the “hTNF-α binding (in words)” value on human TNF-α (hTNF-α) is given as “bound hTNF-α in a dose-dependent manner”. In addition, the “binding for murine TNF-α (in words)” value with murine TNF-α is “did not show any binding for murine TNF-α”.

(Values after article PMC6271742, “A Novel Phage-Library-Selected Peptide Inhibits Human TNF-α Binding to Its Receptors” (Molecules, 2014).)
